# Measured values from PubChem BioAssay AID1919016 (Molecular Pharmacology Branch, DTP, NCI, 2023).
# Test system: NCI-H196 complex spheroid growth, percent test/control
# Experiment: Anticancer human tumor NCI-H196 cell line growth inhibition [AhR];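 note: seven days of drug exposure starting three days after plating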;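 for viability, T/C: 100% = DMSO vehicle control wells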
# Details: for IC50: curve of first compound; for viability, T/C: stronger effect = lower value
# In short: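 Spheroids combined tumor cells with HUVEC endothelial cells and human MSCs as stroma. AhR antagonists were paired with standard or investigational drugs, each dosed in half-log steps down from near clinical Cmax, or from 10 microM where Cmax was unknown.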
smiles,measurement,setting,value
CC(C)CC(NC(=O)C(Cc1ccccc1)NC(=O)c1cnccn1)B(O)O (stereo not given) + Cc1cncc(-c2nc(NCCc3c[nH]c4ccccc34)c3ncn(C(C)C)c3n2)c1,IC50,second compound 0.1 µM,7.65 nM
same,IC50,second compound 0.316 µM,8.51 nM
same,IC50,second compound 1 µM,7.35 nM
same,IC50,second compound 3.16 µM,9.9 nM
same,IC50,second compound 10 µM,5.54 nM
same,"viability, T/C","second compound 0.1 µM, first compound 0.000949 µM",98.2%
same,"viability, T/C","second compound 0.1 µM, first compound 0.003 µM",109%
same,"viability, T/C","second compound 0.1 µM, first compound 0.00949 µM",37.6%
same,"viability, T/C","second compound 0.1 µM, first compound 0.03 µM",1.78%
same,"viability, T/C","second compound 0.1 µM, first compound 0.0949 µM",1.16%
same,"viability, T/C","second compound 0.1 µM, first compound 0.3 µM",1.38%
same,"viability, T/C","second compound 0.316 µM, first compound 0.000949 µM",95.2%
same,"viability, T/C","second compound 0.316 µM, first compound 0.003 µM",99.1%
same,"viability, T/C","second compound 0.316 µM, first compound 0.00949 µM",45%
same,"viability, T/C","second compound 0.316 µM, first compound 0.03 µM",1.25%
same,"viability, T/C","second compound 0.316 µM, first compound 0.0949 µM",2.43%
same,"viability, T/C","second compound 0.316 µM, first compound 0.3 µM",1.51%
same,"viability, T/C","second compound 1 µM, first compound 0.000949 µM",102%
same,"viability, T/C","second compound 1 µM, first compound 0.003 µM",98.7%
same,"viability, T/C","second compound 1 µM, first compound 0.00949 µM",36.1%
same,"viability, T/C","second compound 1 µM, first compound 0.03 µM",1.32%
same,"viability, T/C","second compound 1 µM, first compound 0.0949 µM",1.62%
same,"viability, T/C","second compound 1 µM, first compound 0.3 µM",0.94%
same,"viability, T/C","second compound 3.16 µM, first compound 0.000949 µM",105%
same,"viability, T/C","second compound 3.16 µM, first compound 0.003 µM",103%
same,"viability, T/C","second compound 3.16 µM, first compound 0.00949 µM",51.9%
same,"viability, T/C","second compound 3.16 µM, first compound 0.03 µM",0.84%
same,"viability, T/C","second compound 3.16 µM, first compound 0.0949 µM",0.89%
same,"viability, T/C","second compound 3.16 µM, first compound 0.3 µM",2.1%
same,"viability, T/C","second compound 10 µM, first compound 0.000949 µM",83.2%
same,"viability, T/C","second compound 10 µM, first compound 0.003 µM",95%
same,"viability, T/C","second compound 10 µM, first compound 0.00949 µM",15.8%
same,"viability, T/C","second compound 10 µM, first compound 0.03 µM",0.72%
same,"viability, T/C","second compound 10 µM, first compound 0.0949 µM",0.96%
same,"viability, T/C","second compound 10 µM, first compound 0.3 µM",1.09%
COc1cc(Nc2ncc3c(n2)-c2ccc(Cl)cc2C(c2c(F)cccc2OC)=NC3)ccc1C(=O)O + Cc1cncc(-c2nc(NCCc3c[nH]c4ccccc34)c3ncn(C(C)C)c3n2)c1,IC50,second compound 0.1 µM,> 10000 nM
same,IC50,second compound 0.316 µM,> 10000 nM
same,IC50,second compound 1 µM,> 10000 nM
same,IC50,second compound 3.16 µM,> 10000 nM
same,IC50,second compound 10 µM,> 10000 nM
same,"viability, T/C","second compound 0.1 µM, first compound 0.0316 µM",96%
same,"viability, T/C","second compound 0.1 µM, first compound 0.1 µM",99.5%
same,"viability, T/C","second compound 0.1 µM, first compound 0.316 µM",98.4%
same,"viability, T/C","second compound 0.1 µM, first compound 1 µM",103%
same,"viability, T/C","second compound 0.1 µM, first compound 3.16 µM",118%
same,"viability, T/C","second compound 0.1 µM, first compound 10 µM",153%
same,"viability, T/C","second compound 0.316 µM, first compound 0.0316 µM",98.7%
same,"viability, T/C","second compound 0.316 µM, first compound 0.1 µM",94.3%
same,"viability, T/C","second compound 0.316 µM, first compound 0.316 µM",109%
same,"viability, T/C","second compound 0.316 µM, first compound 1 µM",111%
same,"viability, T/C","second compound 0.316 µM, first compound 3.16 µM",131%
same,"viability, T/C","second compound 0.316 µM, first compound 10 µM",129%
same,"viability, T/C","second compound 1 µM, first compound 0.0316 µM",94.1%
same,"viability, T/C","second compound 1 µM, first compound 0.1 µM",102%
same,"viability, T/C","second compound 1 µM, first compound 0.316 µM",120%
same,"viability, T/C","second compound 1 µM, first compound 1 µM",114%
same,"viability, T/C","second compound 1 µM, first compound 3.16 µM",104%
same,"viability, T/C","second compound 1 µM, first compound 10 µM",148%
same,"viability, T/C","second compound 3.16 µM, first compound 0.0316 µM",101%
same,"viability, T/C","second compound 3.16 µM, first compound 0.1 µM",104%
same,"viability, T/C","second compound 3.16 µM, first compound 0.316 µM",127%
same,"viability, T/C","second compound 3.16 µM, first compound 1 µM",115%
same,"viability, T/C","second compound 3.16 µM, first compound 3.16 µM",118%
same,"viability, T/C","second compound 3.16 µM, first compound 10 µM",145%
same,"viability, T/C","second compound 10 µM, first compound 0.0316 µM",83.1%
same,"viability, T/C","second compound 10 µM, first compound 0.1 µM",91.8%
same,"viability, T/C","second compound 10 µM, first compound 0.316 µM",106%
same,"viability, T/C","second compound 10 µM, first compound 1 µM",97.7%
same,"viability, T/C","second compound 10 µM, first compound 3.16 µM",104%
same,"viability, T/C","second compound 10 µM, first compound 10 µM",143%
